Test results: the supplement of paper PMC10307832

Legend:
Assay in all cases: relative viability (nuclei count vs DMSO), 5 days (fraction); higher = more cells survive
[1] = compound: C[C@@]1(C(=O)Nc2ccc(F)nc2)CCCN1c1nc(Nc2cc(C3CC3)n[nH]2)c2cccn2n1 + Cc1nc(Nc2ncc(C(=O)Nc3c(C)cccc3Cl)s2)cc(N2CCN(CCO)CC2)n1 [Dasatinib] (partner 0.075 µM)
Method in brief: (§1)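 Relative viability equals treated-well nuclei counts divided by vehicle-well nuclei counts. Counts came from 4× images of lung cancer cell lines grown in 1536-well plates for 5 days after pin-tool dosing on the day after seeding. Dosing used one drug alone or a fixed anchor-drug dose plus five library-drug doses (not always all listed) in √10 steps, and values are medians of duplicate plates.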

Motesanib + Pictilisib = compound: CC1(C)CNc2cc(NC(=O)c3cccnc3NCc3ccncc3)ccc21 [Motesanib] + CS(=O)(=O)N1CCN(Cc2cc3nc(-c4cccc5[nH]ncc45)nc(N4CCOCC4)c3s2)CC1 [Pictilisib] (partner 1 µM)
Method in brief: as §1

Motesanib + Olaparib = compound: CC1(C)CNc2cc(NC(=O)c3cccnc3NCc3ccncc3)ccc21 [Motesanib] + O=C(c1cc(Cc2n[nH]c(=O)c3ccccc23)ccc1F)N1CCN(C(=O)C2CC2)CC1 [Olaparib] (partner 8 µM)
Method in brief: as §1

Motesanib + Bortezomib = compound: CC1(C)CNc2cc(NC(=O)c3cccnc3NCc3ccncc3)ccc21 [Motesanib] + CC(C)C[C@H](NC(=O)[C@H](Cc1ccccc1)NC(=O)c1cnccn1)B(O)O [Bortezomib] (partner 0.002 µM)
Method in brief: as §1

Row | Cell Line | relative viability ([1]; first compound 0.04 µM) | relative viability ([1]; first compound 0.1265 µM) | relative viability ([1]; first compound 0.4 µM) | relative viability ([1]; first compound 1.265 µM) | relative viability (Motesanib + Pictilisib; first compound 0.01 µM) | relative viability (Motesanib + Pictilisib; first compound 0.03162 µM) | relative viability (Motesanib + Pictilisib; first compound 0.1 µM) | relative viability (Motesanib + Pictilisib; first compound 0.3162 µM) | relative viability (Motesanib + Pictilisib; first compound 1 µM) | relative viability (Motesanib + Olaparib; first compound 0.01 µM) | relative viability (Motesanib + Olaparib; first compound 0.03162 µM) | relative viability (Motesanib + Olaparib; first compound 0.1 µM) | relative viability (Motesanib + Olaparib; first compound 0.3162 µM) | relative viability (Motesanib + Olaparib; first compound 1 µM) | relative viability (Motesanib + Bortezomib; first compound 0.01 µM) | relative viability (Motesanib + Bortezomib; first compound 0.03162 µM) | relative viability (Motesanib + Bortezomib; first compound 0.1 µM) | relative viability (Motesanib + Bortezomib; first compound 0.3162 µM) | relative viability (Motesanib + Bortezomib; first compound 1 µM)
1 | NCI-H358 | 0.128 | 0.123 | 0.103 | 0.124 | 0.303 | 0.336 | 0.351 | 0.435 | 0.338 | 0.507 | 0.652 | 0.626 | 0.658 | 0.633 |  |  |  |  | 
2 | NCI-H522 | 0.856 | 0.628 | 0.775 | 0.789 |  |  |  |  |  | 0.691 | 0.674 | 0.594 | 0.677 | 0.876 |  |  |  |  | 
3 | NCI-H1299 |  |  |  |  | 0.59 | 0.828 | 0.825 | 0.845 | 0.845 | 0.938 | 0.973 | 1.03 | 1.02 | 0.898 | 1.02 | 1.02 | 1.04 | 1.01 | 1.05
4 | NCI-H1395 | 0.374 | 0.34 | 0.388 | 0.378 | 0.61 | 0.566 | 0.609 | 0.646 | 0.703 | 0.442 | 0.496 | 0.455 | 0.493 | 0.468 |  |  |  |  | 
5 | NCI-H1563 | 0.404 | 0.413 | 0.343 | 0.323 | 0.65 | 0.645 | 0.68 | 0.64 | 0.678 |  |  |  |  |  | 0.934 | 0.812 | 0.956 | 0.882 | 0.904
6 | NCI-H1648 |  |  |  |  |  |  |  |  |  | 0.563 |  |  | 1.1 | 1.06 |  |  |  |  | 
7 | NCI-H1703 |  |  |  |  | 0.21 | 0.219 | 0.195 | 0.215 | 0.214 | 0.442 | 0.305 | 0.318 | 0.223 | 0.232 | 0.25 | 0.264 | 0.228 | 0.192 | 0.265
8 | NCI-H1793 | 0.448 | 0.36 |  | 0.335 | 0.364 | 0.282 | 0.301 | 0.34 | 0.469 | 0.798 | 0.827 | 0.761 | 0.904 | 0.844 |  |  |  |  | 
9 | NCI-H1944 | 0.173 | 0.154 | 0.145 | 0.166 | 0.322 | 0.342 | 0.399 | 0.379 | 0.364 | 0.444 | 0.4 | 0.432 | 0.46 | 0.428 |  |  |  |  | 
10 | NCI-H2170 | 0.572 | 0.564 | 0.47 | 0.414 | 0.278 | 0.347 | 0.294 | 0.331 | 0.344 | 0.694 | 0.656 | 0.599 | 0.61 | 0.684 |  |  |  |  | 
11 | NCI-H2342 | 0.356 | 0.26 | 0.294 | 0.264 |  |  |  |  |  | 0.472 | 0.569 | 0.403 | 0.469 | 0.463 |  |  |  |  | 
12 | SK-MES-1 | 0.27 | 0.244 | 0.159 | 0.153 | 0.392 | 0.405 | 0.403 | 0.381 | 0.339 | 0.736 | 0.725 | 0.736 | 0.677 | 0.575 |  |  |  |  | 
13 | SW 900 | 0.555 | 0.32 | 0.507 | 0.346 |  |  |  |  |  | 0.904 | 0.677 | 0.811 | 0.9 | 0.917 |  |  |  |  | 
